Each structure is given as a SMILES string. A value given as a limit tells only on which side of the number the result lay.

Type in all cases: in vitro ADME
In one test the target is T1, hOAT1 (Homo sapiens, UniProt Q4U2R8).
T1 construct: expressed in transfected cells; host or cells: HEK293
T1 sequence (Q4U2R8 1-563): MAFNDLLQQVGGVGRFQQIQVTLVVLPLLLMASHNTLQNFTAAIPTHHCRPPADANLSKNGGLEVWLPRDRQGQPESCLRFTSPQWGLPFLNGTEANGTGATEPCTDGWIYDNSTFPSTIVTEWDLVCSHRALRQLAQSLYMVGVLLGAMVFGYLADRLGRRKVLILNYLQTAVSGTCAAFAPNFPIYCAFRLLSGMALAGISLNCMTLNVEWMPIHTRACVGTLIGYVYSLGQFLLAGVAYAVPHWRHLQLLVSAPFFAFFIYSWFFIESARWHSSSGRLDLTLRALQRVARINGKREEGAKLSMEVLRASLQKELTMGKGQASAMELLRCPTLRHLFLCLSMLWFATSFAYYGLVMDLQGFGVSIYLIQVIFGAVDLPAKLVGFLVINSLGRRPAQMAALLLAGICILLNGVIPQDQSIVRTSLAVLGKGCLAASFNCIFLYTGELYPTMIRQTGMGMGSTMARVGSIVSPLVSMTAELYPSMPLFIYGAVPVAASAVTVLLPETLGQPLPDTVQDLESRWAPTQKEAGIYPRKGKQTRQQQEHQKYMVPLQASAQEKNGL
Nature of the test: Two-point inhibition of hOAT1-mediated PAH uptake in transfected HEK293 cells. Conditions: PAH 10 μM, 1 min. The method, then:
(§1) Well-characterized mOct1-, mOct2-, mOat1-, mOat2-, mOat3-, mMate1-, hOAT1-, hOAT3-, hOAT4-, hMRP2-, mMdr1a- and mMdr1b-transfected HEK293 cells and the respective vector-transfected control HEK293 cells were used.[42],[51],[52] All HEK293 cells (transporter-transfected and vector-transfected) were cultured in DMEM (Sigma, high glucose, 10% FBS, 1% penicillin (10,000 Units/mL)/streptomycin (10 mg/mL)) at 37°C under 5% CO2 in humidified atmosphere. The cells were routinely checked for the absence of mycoplasma infection. For the preparation of HEK293 cell monolayers, 24-well plates were pretreated with a poly-D-lysine hydrobromide solution (0.1 mg/mL). […]
(§2) For the uptake assay, the growth medium was aspirated, and each well was rinsed three times with 0.5 mL of incubation buffer (HBSS supplemented with 20 mM HEPES, pH 7.4) and incubated for 20 min at 37 °C. […] Cells were solubilized with 0.6 mL of 1N NaOH overnight and transferred into scintillation vials. ^3H and ^14C contents were measured after the addition of 2.5 mL of scintillator in a liquid scintillation counter.
(§3) The cellular protein amount was determined in parallel for each cell line (vector- and transporter-transfected) from six wells in a different 24-well reference plate using the Bradford method. […]
(§4) The inhibitory effect (I(%)) was calculated according to the formula: [drawing 5] […]

The target of another test is T2, hOAT3 (Homo sapiens, UniProt Q8TCC7).
T2 construct: expressed in transfected cells; host or cells: HEK293
T2 sequence (Q8TCC7 1-542): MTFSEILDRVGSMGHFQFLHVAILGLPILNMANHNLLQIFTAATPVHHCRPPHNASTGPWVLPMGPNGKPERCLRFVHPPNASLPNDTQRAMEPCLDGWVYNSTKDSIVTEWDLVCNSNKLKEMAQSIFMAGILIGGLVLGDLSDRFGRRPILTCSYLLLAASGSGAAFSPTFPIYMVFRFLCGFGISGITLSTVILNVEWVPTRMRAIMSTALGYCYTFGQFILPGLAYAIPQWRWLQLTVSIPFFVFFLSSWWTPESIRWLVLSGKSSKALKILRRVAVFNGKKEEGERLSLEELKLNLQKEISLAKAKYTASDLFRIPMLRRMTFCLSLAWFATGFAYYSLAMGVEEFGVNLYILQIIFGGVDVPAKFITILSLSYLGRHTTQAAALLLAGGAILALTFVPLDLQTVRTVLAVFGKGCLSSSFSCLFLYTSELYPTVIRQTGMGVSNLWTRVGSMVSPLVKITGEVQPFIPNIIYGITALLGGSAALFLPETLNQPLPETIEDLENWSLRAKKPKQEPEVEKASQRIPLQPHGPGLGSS
Nature of the test: Two-point inhibition of hOAT3-mediated ES uptake in transfected HEK293 cells. Conditions: ES 1 μM, 1 min. How it is done: as §1, §2, §3, §4

The target in the next test is T3, mOat3 (Mus musculus, UniProt O88909).
T3 construct: expressed in transfected cells; host or cells: HEK293
T3 sequence (O88909 1-537): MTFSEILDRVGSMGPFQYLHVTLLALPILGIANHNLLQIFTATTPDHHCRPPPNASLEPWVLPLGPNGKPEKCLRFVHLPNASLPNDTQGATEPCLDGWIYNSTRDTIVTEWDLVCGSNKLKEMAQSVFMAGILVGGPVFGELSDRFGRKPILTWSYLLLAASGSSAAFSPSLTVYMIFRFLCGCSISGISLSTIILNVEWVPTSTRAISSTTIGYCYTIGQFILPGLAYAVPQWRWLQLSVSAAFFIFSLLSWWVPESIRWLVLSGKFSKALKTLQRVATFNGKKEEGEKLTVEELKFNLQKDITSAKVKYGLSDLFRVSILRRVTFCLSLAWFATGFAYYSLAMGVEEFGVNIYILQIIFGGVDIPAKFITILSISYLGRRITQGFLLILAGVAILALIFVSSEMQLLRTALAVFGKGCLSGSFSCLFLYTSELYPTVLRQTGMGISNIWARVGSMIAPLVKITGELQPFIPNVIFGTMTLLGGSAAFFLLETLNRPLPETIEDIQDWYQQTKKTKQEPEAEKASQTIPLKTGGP
Put plainly: Two-point inhibition of mOat3-mediated ES uptake in transfected HEK293 cells. Conditions: ES 1 μM, 1 min. How it is done: as §1, §2, §3, §4

As for `CC(=O)C1=C(O)[C@@H](N)[C@H]2Cc3c(c(O)c4c(O)c(C)ccc4c3C)C(=O)[C@@]2(O)C1=O` [CHD, chelocardin], the inhibition at 10 µM at hOAT1 (HEK293, at 10 μM, read-out: inhibitory effect on hOAT1) was around 50%; at hOAT3 (HEK293, at 10 μM, read-out: inhibitory effect on hOAT3), around 75%; on mOat3 (HEK293, at 10 μM, read-out: inhibitory effect on mOat3) it was above 50%.

Consider `Cc1ccc2c(C)c3c(c(O)c2c1O)C(=O)[C@@]1(O)C(=O)C(C(N)=O)=C(O)[C@@H](N)[C@H]1C3` [CDCHD, amidochelocardin], for which the “inhibitory effect on hOAT1 (in words)” value at hOAT1 (1 and 10 μM) was “No inhibitory effect”. Besides, the “inhibition of hOAT3 (in words)” value at hOAT3 (1 and 10 μM) is recorded as “only marginally”. Besides, on mOat3 (1 and 10 μM), the “inhibitory effect on mOat3 (in words)” value is recorded as “no inhibitory effect”.

Values taken from publication PMC11249637, “Interaction of the Atypical Tetracyclines Chelocardin and Amidochelocardin with Renal Drug Transporters” (ACS Pharmacology & Translational Science, 2024).
